{"source": "PubChem BioAssay AID1963850", "about": "(Molecular Pharmacology Branch, DTP, NCI, 2024);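 note: spheroids exposed to drugs for seven days before reading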;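 for viability, T/C: 100% = DMSO vehicle control viability in luminescence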", "test_system": "192522-019-R-J2-PDC complex tumor spheroid viability", "experiment": "Anticancer human tumor 192522-019-R-J2-PDC patient-derived colon adenocarcinoma cell line growth inhibition [POLQ]", "conditions": "for IC50: curve of first compound; for viability, T/C: stronger effect = lower value", "how_it_was_run": "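Patient-derived tumour cells were co-cultured with HUVEC and mesenchymal stem cells as multicellular spheroids at 37 °C. They were treated with POLQ inhibitors (novobiocin, ART-558, RP6685) alone or combined with other agents. Top concentrations were at or near clinical Cmax (otherwise 10 microM; SN-38 at 1 microM), decreasing in half-log steps.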", "data": [{"smiles": "COc1cccc2c1C(=O)c1c(O)c3c(c(O)c1C2=O)CC(O)(C(=O)CO)CC3OC1CC(N)C(O)C(C)O1", "note": "(configuration not stated) + Cc1cccc(N(C)C(=O)C2C(O)CCN2c2nc(C)cc(C(F)(F)F)c2C#N)c1", "values": [{"measurement": "IC50", "setting": "second compound 0.0316 µM", "result": "> 10", "unit": "µM"}, {"measurement": "IC50", "setting": "second compound 0.1 µM", "result": "> 10", "unit": "µM"}, {"measurement": "IC50", "setting": "second compound 0.316 µM", "result": "> 10", "unit": "µM"}, {"measurement": "IC50", "setting": "second compound 1 µM", "result": "> 10", "unit": "µM"}, {"measurement": "IC50", "setting": "second compound 3.16 µM", "result": "> 10", "unit": "µM"}, {"measurement": "IC50", "setting": "second compound 10 µM", "result": "> 10", "unit": "µM"}, {"measurement": "viability, T/C", "setting": "second compound 0.0316 µM, first compound 0.0316 µM", "result": 99.3, "unit": "%"}, {"measurement": "viability, T/C", "setting": "second compound 0.0316 µM, first compound 0.1 µM", "result": 79.8, "unit": "%"}, {"measurement": "viability, T/C", "setting": "second compound 0.0316 µM, first compound 0.316 µM", "result": 73.9, "unit": "%"}, {"measurement": "viability, T/C", "setting": "second compound 0.0316 µM, first compound 1 µM", "result": 86.3, "unit": "%"}, {"measurement": "viability, T/C", "setting": "second compound 0.0316 µM, first compound 3.16 µM", "result": 69.6, "unit": "%"}, {"measurement": "viability, T/C", "setting": "second compound 0.0316 µM, first compound 10 µM", "result": 57.2, "unit": "%"}, {"measurement": "viability, T/C", "setting": "second compound 0.1 µM, first compound 0.0316 µM", "result": 94, "unit": "%"}, {"measurement": "viability, T/C", "setting": "second compound 0.1 µM, first compound 0.1 µM", "result": 85.6, "unit": "%"}, {"measurement": "viability, T/C", "setting": "second compound 0.1 µM, first compound 0.316 µM", "result": 72.5, "unit": "%"}, {"measurement": "viability, T/C", "setting": "second compound 0.1 µM, first compound 1 µM", "result": 83.8, "unit": "%"}, {"measurement": "viability, T/C", "setting": "second compound 0.1 µM, first compound 3.16 µM", "result": 69.1, "unit": "%"}, {"measurement": "viability, T/C", "setting": "second compound 0.1 µM, first compound 10 µM", "result": 67.7, "unit": "%"}, {"measurement": "viability, T/C", "setting": "second compound 0.316 µM, first compound 0.0316 µM", "result": 98.3, "unit": "%"}, {"measurement": "viability, T/C", "setting": "second compound 0.316 µM, first compound 0.1 µM", "result": 91.1, "unit": "%"}, {"measurement": "viability, T/C", "setting": "second compound 0.316 µM, first compound 0.316 µM", "result": 69.4, "unit": "%"}, {"measurement": "viability, T/C", "setting": "second compound 0.316 µM, first compound 1 µM", "result": 77, "unit": "%"}, {"measurement": "viability, T/C", "setting": "second compound 0.316 µM, first compound 3.16 µM", "result": 65.2, "unit": "%"}, {"measurement": "viability, T/C", "setting": "second compound 0.316 µM, first compound 10 µM", "result": 63.3, "unit": "%"}, {"measurement": "viability, T/C", "setting": "second compound 1 µM, first compound 0.0316 µM", "result": 110, "unit": "%"}, {"measurement": "viability, T/C", "setting": "second compound 1 µM, first compound 0.1 µM", "result": 92, "unit": "%"}, {"measurement": "viability, T/C", "setting": "second compound 1 µM, first compound 0.316 µM", "result": 76.5, "unit": "%"}, {"measurement": "viability, T/C", "setting": "second compound 1 µM, first compound 1 µM", "result": 83.7, "unit": "%"}, {"measurement": "viability, T/C", "setting": "second compound 1 µM, first compound 3.16 µM", "result": 75.5, "unit": "%"}, {"measurement": "viability, T/C", "setting": "second compound 1 µM, first compound 10 µM", "result": 61.1, "unit": "%"}, {"measurement": "viability, T/C", "setting": "second compound 3.16 µM, first compound 0.0316 µM", "result": 96.5, "unit": "%"}, {"measurement": "viability, T/C", "setting": "second compound 3.16 µM, first compound 0.1 µM", "result": 99.9, "unit": "%"}, {"measurement": "viability, T/C", "setting": "second compound 3.16 µM, first compound 0.316 µM", "result": 74.2, "unit": "%"}, {"measurement": "viability, T/C", "setting": "second compound 3.16 µM, first compound 1 µM", "result": 69.7, "unit": "%"}, {"measurement": "viability, T/C", "setting": "second compound 3.16 µM, first compound 3.16 µM", "result": 70.9, "unit": "%"}, {"measurement": "viability, T/C", "setting": "second compound 3.16 µM, first compound 10 µM", "result": 60.3, "unit": "%"}, {"measurement": "viability, T/C", "setting": "second compound 10 µM, first compound 0.0316 µM", "result": 102, "unit": "%"}, {"measurement": "viability, T/C", "setting": "second compound 10 µM, first compound 0.1 µM", "result": 79.1, "unit": "%"}, {"measurement": "viability, T/C", "setting": "second compound 10 µM, first compound 0.316 µM", "result": 69.9, "unit": "%"}, {"measurement": "viability, T/C", "setting": "second compound 10 µM, first compound 1 µM", "result": 62.7, "unit": "%"}, {"measurement": "viability, T/C", "setting": "second compound 10 µM, first compound 3.16 µM", "result": 67.3, "unit": "%"}, {"measurement": "viability, T/C", "setting": "second compound 10 µM, first compound 10 µM", "result": 49.8, "unit": "%"}]}]}
